The results in this text go back to patent US20240130966A1 (Aerovate Therapeutics, Inc., priority 2021, published 2024).

The procedure of this data set:
Generator impactor profiles were prepared for ceramic milled powders both before and after conditioning with high humidity for a short time (80-90% RH at room temperature for ˜3 hours).
Again, the exposure consisted of 80%-90% relative humidity at room temperature for about 3 hours.

Where [1] appears, read: Post-exposure, 80%-90% relative humidity at room temperature for about 3 hours (N=9).

Where two headings read alike, the source gives them in different places.

As to Imatinib, under setting [1], the “FPF of emitted dose (%)” value is given as 66.8 +/− 4.3% and the “FPF of fill (%)” value is recorded as 48.1 +/− 3.0%. Moreover, under “Pre-exposure to humidity (N=7)”, the “FPF of emitted dose (%)” value is 52.3 +/− 6.3% and the “FPF of fill (%)” value is listed as 36.2 +/− 3.5%. Besides, the “Increase in fine particle dose (stage 3-MOC levels) after humidity conditioning” value (ceramic milled powders, 80-90% RH at room temperature for ~3 hours, FIG. 1) was 10-20 % of the capsule fill dose. For the same substance, the “Delivery performance after desorption compared to post-humidification powders” value (humidity for 12+ hours, then desorbed at <5% RH for about 24 hours) was “no change in delivery performance”.
